From paper PMC7156458, “Synthetic biology based construction of biological activity-related library of fungal decalin-containing diterpenoid pyrones” (Nature Communications, 2020)
Values joined by “and” are separate entries in the source; they are usually repeats but may differ in a detail not shown here. Identical values can stand only once. Like-named read-outs stand apart in the source and are kept apart here.

Assays:
[1] = tested on: MAGI cells; experiment: cytotoxicity in the anti-HIV assay (CC50); format: cell-based; details: single determinations
[2] = cytotoxicity in Drosophila l(2)mbn cells; format: cell-based; details: Drosophila, l(2)mbn cells (larval blood cell-derived)
Description: (§1) We screened the DDPs on the Drosophila assay system for cytotoxicity, inhibitory activity of innate immune signalling and insecticidal activity. The cytotoxicity of the DDPs was evaluated using two cell lines, embryonic macrophage-derived DL1 cells[58]–[60] and larval blood cell-derived l(2)mbn cells, and their IC50 values are listed in Supplementary Table 23.

[3] = tested on: l(2)mbn cells; experiment: cytotoxicity in Drosophila l(2)mbn cells; format: cell-based; details: for Luminescence Raw1: replicate 1; for Luminescence Raw2: replicate 2; for IC50: Drosophila melanogaster, cytotoxicity
Description: as §1

[4] = tested on: human immunodeficiency virus-1 (HIV-1); experiment: anti-HIV MAGI assay; format: cell-based; details: anti-HIV
From the text: We examined the inhibitory activities of DDPs against various species of bacteria (both gram-negative and gram-positive bacteria), fungi and viruses. […] In contrast, preliminary screening of the DDPs for anti-viral agents with hepatitis B virus (HBV), measles virus (MV), Epstein-Barr virus (EBV), herpes simplex virus (HSV) and human immunodeficiency virus-1 (HIV-1) indicated their selective inhibition of HIV.

[5] = cytotoxicity in Drosophila DL1 cells; format: cell-based; details: Drosophila, DL1 cells (embryonic macrophage-derived), DL1 cells
Description: as §1

[6] = tested on: DL1 cells; experiment: cytotoxicity in Drosophila DL1 cells; format: cell-based; details: DL1 cells; for IC50: Drosophila melanogaster, cytotoxicity
Description: as §1

[7] = tested on: MCF-7 cells; experiment: cell cytotoxic effects against MCF-7 cells (72 h), A490; format: cell-based, human; details: MCF-7, 72 h
[8] = replicate 1, relative to DMSO 1%, read-out: % viability, viability 1
[9] = replicate 2, relative to DMSO 1%, read-out: % viability, viability 2
[10] = average of two replicates, read-out: IC50 Average
[11] = replicate 1, read-out: IC50 (1)
[12] = replicate 2, read-out: IC50 (2)

## C=C1CCC2C(C)(CCC=C(C)C)C(O)CCC2(C)C1Cc1c(OC)oc(CO)c(C(=O)OC)c1=O (stereo not drawn) [Compound 13]
[1]
  Cytotoxicity: >10 µM
[2]; [8]
  viability at 0.04 µM: 144%
  viability at 0.2 µM: 160%
  viability at 1 µM: 157%
  viability at 4 µM: 90.9%
  viability at 10 µM: 20.9%
  viability at 20 µM: 10.9%
[2]; [9]
  viability at 0.04 µM: 152%
  viability at 0.2 µM: 139%
  viability at 1 µM: 122%
  viability at 4 µM: 79.1%
  viability at 10 µM: 24.3%
  viability at 20 µM: 9.4%
[3]; 0.04 µM
  Luminescence Raw1: 3699578
  Luminescence Raw2: 3900517
[3]; 0.2 µM
  Luminescence Raw1: 4107234
  Luminescence Raw2: 3571875
[3]; 1 µM
  Luminescence Raw1: 4025701
  Luminescence Raw2: 3137197
[3]; 4 µM
  Luminescence Raw1: 2332844
  Luminescence Raw2: 2029883
[3]; 10 µM
  Luminescence Raw1: 535109
  Luminescence Raw2: 623453
[3]; 20 µM
  Luminescence Raw1: 280543
  Luminescence Raw2: 241241
[3]; [10]
  IC50: 8460 nM
[3]; average±SEM, read-out: IC50
  IC50: 8460 ± 980 nM
[3]; [11]
  IC50: 9440 nM
[3]; [12]
  IC50: 7470 nM
[4]; Human immunodeficiency virus 1, MAGI, average of numeric determinations, read-out: Avg. EC50
  EC50: 68.8 nM
[4]; Human immunodeficiency virus 1, MAGI, single determinations, read-out: Efficacy (EC50)
  EC50: 69.7 nM
[4]; single determinations, read-out: Efficacy (EC50)
  EC50: 61.1 nM and 81.4 nM and 63.1 nM
[5]; [8]
  viability at 0.04 µM: 100%
  viability at 0.2 µM: 78.9%
  viability at 1 µM: 9.59%
  viability at 4 µM: 6.11%
  viability at 10 µM: 7.19%
  viability at 20 µM: 4.62%
[5]; [9]
  viability at 0.04 µM: 102%
  viability at 0.2 µM: 70.5%
  viability at 1 µM: 9.84%
  viability at 4 µM: 5.06%
  viability at 10 µM: 6.02%
  viability at 20 µM: 3.94%
[6]; 0.04 µM, replicate 1
  Luminescence Raw1: 2061595
[6]; 0.04 µM, replicate 2
  Luminescence Raw2: 2096579
[6]; 0.2 µM, replicate 1
  Luminescence Raw1: 1624487
[6]; 0.2 µM, replicate 2
  Luminescence Raw2: 1452825
[6]; 1 µM, replicate 1
  Luminescence Raw1: 197587
[6]; 1 µM, replicate 2
  Luminescence Raw2: 202634
[6]; 4 µM, replicate 1
  Luminescence Raw1: 125835
[6]; 4 µM, replicate 2
  Luminescence Raw2: 104201
[6]; 10 µM, replicate 1
  Luminescence Raw1: 148189
[6]; 10 µM, replicate 2
  Luminescence Raw2: 124032
[6]; 20 µM, replicate 1
  Luminescence Raw1: 95187
[6]; 20 µM, replicate 2
  Luminescence Raw2: 81125
[6]; [10]
  IC50: 292 nM
[6]; average±SEM, read-out: IC50
  IC50: 290 ± 20 nM
[6]; [11]
  IC50: 311 nM
[6]; [12]
  IC50: 273 nM
[7]; Homo sapiens, MCF7, 72 h, 0.1 µM (DMSO 0.002%), read-out: A490 (control =1) ave
  viability at 0.1 µM: 89.1%
[7]; Homo sapiens, MCF7, 72 h, 1 µM (DMSO 0.02%), read-out: A490 (control =1) ave
  viability at 1 µM: 106%
[7]; Homo sapiens, MCF7, 72 h, 10 µM (DMSO 0.2%), read-out: A490 (control =1) ave
  viability at 10 µM: 98.6%
[7]; 0.1 µM (DMSO 0.002%), control 1.064
  A490 ave: 0.948
[7]; 1 µM (DMSO 0.02%), control 1.104
  A490 ave: 1.176
[7]; 10 µM (DMSO 0.2%), control 1.049
  A490 ave: 1.034
